Values of other authors, collected in patent publication US6372423B1, “Method for stabilizing platelets” (Dade Behring Marburg GmbH, priority 1996, dated 2002).
Counter-ions that a name gives are not always drawn.

Settings: intravenous administration of 0.8 mg per kg and hour

## CCN(CCO)CCCC(C)Nc1ccnc2cc(Cl)ccc12 (stereo not shown) [hydroxychloroquine sulfate]
  Toxicological assessment: toxicologically harmless
